Like-named read-outs stand apart in the source and are kept apart here.
Legend:
[1] = Diluents lowering the melting point of pelargonic acid: visual appearance (crystal/clear) of pelargonic acid/diluent blends at low temperature
[2] = Wetting/spreading of a drop on a hydrophobic polystyrene dish; format: physicochemical; conditions: in water (0.5-3.7%)
Source text: It was unexpectedly discovered that there is a synergy in wetting/spreading between C9 acid and phosphate ester exemplified by PE2 (C1216-30 phosphate ester). […] That is, a drop of the solution balls up with a large contact angle on the dish.

[3] = pelargonic acid 30 wt % + diluent 70 wt %
[4] = pelargonic acid 50 wt % + diluent 50 wt %
[5] = pelargonic acid 60 wt % + diluent 40 wt %
[6] = pelargonic acid 70 wt % + diluent 30 wt %
[7] = pelargonic acid 80 wt % + diluent 20 wt %
[8] = pelargonic acid 65 wt % + diluent 35 wt %
[9] = pelargonic acid 75 wt % + diluent 25 wt %

Compound | diluent amount required to lower the melting point of pelargonic acid to 0° C. (or lower) [1] | appearance at 0° C. [1, 3] | appearance at −20° C. [1, 3] | appearance at 0° C. [1, 4] | appearance at −20° C. [1, 4] | appearance at 0° C. [1, 5] | appearance at −20° C. [1, 5] | appearance at 0° C. [1, 6] | appearance at −20° C. [1, 6] | appearance at 0° C. [1, 7] | appearance at −20° C. [1, 7] | appearance at 0° C. [1, 8] | appearance at −20° C. [1, 8] | appearance at 0° C. [1, 9] | appearance at −20° C. [1, 9] | ability to wet a hydrophobic polystyrene dish [2] | appearance at 0° C. [1] | appearance at −20° C. [1]
CCCCC(CC)C(=O)O (stereo not drawn) [2-EH acid, 2-ethyhexanoic acid] | 30% | Clear | Clear | Clear | Crystal | Clear | Crystal | Clear | Crystal | Crystal | Crystal | – | – | – | – | – | – | –
CCCCC(CC)CO (stereo not drawn) [2-EH alcohol, 2-ethylhexanol] | 30% | Clear | Clear | Clear | Crystal | Clear | Crystal | Clear | Crystal | Crystal | Crystal | – | – | – | – | – | – | –
CCCCOC(C)=O [Butyl Acetate] | – | Clear | Clear | Clear | Crystal | – | – | Clear | Crystal | – | – | Clear | Crystal | Clear | Crystal | – | – | –
CCCCCCCCC(=O)O [C9 acid, pelargonic acid] | – | – | – | – | – | – | – | – | – | – | – | – | – | – | – | not able to wet | – | –
CCCCCCC(=O)O [Heptanoic acid] | 25% | – | – | – | – | – | – | – | – | – | – | – | – | Clear | Crystal | – | – | –
COC(=O)c1ccccc1 [Methyl benzoate] | – | – | – | – | – | – | – | – | – | – | – | – | – | – | – | – | Clear | Crystal
COC(=O)c1ccccc1O [Methyl salicylate] | 35% | – | – | Clear | Crystal | – | – | Crystal | Crystal | – | – | Clear | Crystal | Crystal | Crystal | – | – | –
CCCCCCCCOC(=O)C(C)O (stereo not drawn) [Octyl lactate] | 30% | Clear | Crystal | Clear | Crystal | – | – | Crystal | Crystal | – | – | Crystal | Crystal | Crystal | Crystal | – | – | –
CCCCC(=O)O [Valeric C5 acid, valeric acid] | 30% | – | – | – | – | – | – | Clear | Crystal | – | – | – | – | – | – | – | – | –
C=C(C)[C@H]1CC=C(C)CC1 [d-limonene] | – | Clear | Clear | Clear | Crystal | – | – | Clear | Crystal | – | – | Clear | Crystal | Crystal | Crystal | – | – | –
CCOP(=O)(OCC)OCC [triethylphosphate] | – | – | – | – | – | – | – | – | – | – | – | – | – | – | – | – | Clear | –

From patent publication US20240206463A1, “AGROCHEMICAL COMPOSITION” (NOURYON CHEMICALS INTERNATIONAL B.V., priority 2021, published 2024)
